BigSolDB 2.1

NC(=O)Cc1ccc(O)cc1
solubility (mole fraction)
Details | 278.15 K | 283.15 K | 288.15 K | 293.15 K | 298.15 K | 303.15 K | 308.15 K | 313.15 K | 318.15 K | 323.15 K
in acetonitrile | 0.00096 | 0.00141 | 0.00188 | 0.00249 | 0.00305 | 0.00376 | 0.00463 | 0.00573 | 0.00705 | 0.00869
in ethanol | 0.00381 | 0.00459 | 0.00534 | 0.00638 | 0.00752 | 0.00902 | 0.0107 | 0.0126 | 0.015 | 0.0179
in ethyl acetate | 0.0017 | 0.00196 | 0.00238 | 0.00297 | 0.00363 | 0.00455 | 0.00557 | 0.00663 | 0.0078 | 0.00932
in isopropanol | 0.00319 | 0.00379 | 0.0046 | 0.00552 | 0.00684 | 0.00852 | 0.0102 | 0.0122 | 0.0142 | 0.0164
in methanol | 0.0075 | 0.00824 | 0.00951 | 0.0111 | 0.0128 | 0.0148 | 0.0169 | 0.0192 | 0.0218 | 0.0246
in methyl acetate | 0.0032 | 0.00359 | 0.00415 | 0.00486 | 0.00577 | 0.0068 | 0.00779 | 0.00908 | 0.0103 | 0.0118
in n-butanol | 0.00284 | 0.00346 | 0.00428 | 0.00508 | 0.00642 | 0.00754 | 0.00899 | 0.0106 | 0.0125 | 0.0144
in n-butyl acetate | 0.00269 | 0.003 | 0.00345 | 0.0041 | 0.00491 | 0.00587 | 0.00694 | 0.00812 | 0.00935 | 0.0105
in n-heptane | 0.00061 | 0.00087 | 0.00111 | 0.00145 | 0.00194 | 0.00253 | 0.00329 | 0.00418 | 0.00509 | 0.00627
in n-hexane | 0.00032 | 0.00053 | 0.00082 | 0.00116 | 0.00151 | 0.00205 | 0.00263 | 0.00343 | 0.00438 | 0.0056
in n-propanol | 0.00215 | 0.00245 | 0.00292 | 0.0035 | 0.00424 | 0.0052 | 0.00629 | 0.00734 | 0.00868 | 0.01
in water | 0.00096 | 0.00141 | 0.00188 | 0.00249 | 0.00305 | 0.00376 | 0.00463 | 0.00573 | 0.00705 | 0.00869
